# Several values for one entry are separate records, joined by “and”; a condition that tells them apart may be missing. Equal values may be shown once. Read-outs that look alike come from different tables or passages of the source.
# Key:
# [1] = test system: weaned piglets (pigs of Rattlerow Seghers origin); type: in vivo; set-up: dG / End BW: unit not given here
# Source text: The setup of the experiments described below is to assess the influence of DMG on the performance in model species for pigs: mortality, feed conversion ratio (FCR), daily growth (dG), body weight (BW).
# To examine all the effects associated with the supplementation of dimethylglycine (DMG) in pig feed, a test was setup with pigs of Rattlerow Seghers origin as model species. In this feeding trial 60 weaned piglets of even sex distribution were kept for 42 days. Teeth of piglets were clipped and male piglets were neutered during the first week after birth. At the beginning of the test the piglets were ad random divided per sex in 20 pens with 3 piglets per pen, reckoning even weight distribution at pen level. The piglets were fed with one type of feed from the first day on till the end of the test period. The type of feed was attributed on a random basis to the different housings. The control feed was based on a commercial piglet feed enriched with 5% corn oil to increase the oxidative stress in the feed. The feed had the following composition: 91% dry matter, 5% ash, 18% crude protein, 8% crude fat, 4% crude fibre and 56% other carbohydrate. It has a (calculated) metabolizable energy value of about 13.9 MJ/kg.
# In the second type of feed 500mg of DMG was added per kilogram to the same composition of feed as described for the control feed. Over the entire test period, the pigs consumed on average about 290 mg DMG per piglet per day. The housing of the piglets consisted out of slatted floor pig pens of 1.05 m×1.7 m with a total surface of 1.785 m^2. Feed and water were ad libitum available at all times.
# Each piglet was weighted after overnight fasts at 4 times, namely at days 0, 14, 29 and 42. The daily growth for the total growth period (dG) as well as daily growth during the three periods (between the start and the fourteenth day (dGI), between the fourteenth and the twenty-ninth day (dGII) and between the twenty-ninth day and the forty-second day (dGIII)) was calculated for each animal. The feed intake for each pen was also measured during these periods. The feed conversion ratio was calculated for each of the pens for both the growth period excluding the first two weeks (FRCII+III) and for the total growth period (FRC). This feed conversion ratio was calculated by dividing the total feed consumption by the weight gain of the piglets during the entire experiment.
# growing broilers = conditions: DMG supplementation; cited from earlier work
# [2] = test system: male grower-finisher pigs exposed to mycoplasmal infections; conditions: cited from earlier work
# broilers = conditions: diet supplemented with pangamic acid; cited from earlier work
smiles,measurement,setting,value
"CN(C)CC(=O)O [DMG, N,N-dimethylglycine]",End BW,"[1]; Barrow, DMG 500 ppm, mean ± SD",23.4 ± 0.86
same,dG,"[1]; Barrow, DMG 500 ppm, mean ± SD",356 ± 20
same,FCRII + III,"[1]; Barrow, excluding the first two weeks, DMG 500 ppm, mean ± SD",1.71 ± 0.12
same,"FCRII + III, DMG-effect","[1]; Barrow, excluding the first two weeks, vs control",−6.2%
same,FCR,"[1]; Barrow, total growth period, DMG 500 ppm, mean ± SD",1.80 ± 0.09
same,"FCR, DMG-effect","[1]; Barrow, total growth period, vs control",−8.4%
same,End BW,"[1]; Gilt, DMG 500 ppm, mean ± SD",19.3 ± 1.64
same,dG,"[1]; Gilt, DMG 500 ppm, mean ± SD",271 ± 39
same,FCRII + III,"[1]; Gilt, excluding the first two weeks, DMG 500 ppm, mean ± SD",1.74 ± 0.09
same,"FCRII + III, DMG-effect","[1]; Gilt, excluding the first two weeks, vs control",−8.9%
same,FCR,"[1]; Gilt, total growth period, DMG 500 ppm, mean ± SD",1.93 ± 0.16
same,"FCR, DMG-effect","[1]; Gilt, total growth period, vs control",−3.6%
same,"End BW, DMG-effect","[1]; Gilt, vs control",−7.0%
same,"dG, DMG-effect","[1]; Gilt, vs control",−11.0%
same,dGI,"[1]; barrows and gilts, daily growth day 0-14, DMG 500 mg/kg feed, mean ± SD",94 ± 58 g/day
same,dGII,"[1]; barrows and gilts, daily growth day 14-29, DMG 500 mg/kg feed, mean ± SD",365 ± 65 g/day
same,dGIII,"[1]; barrows and gilts, daily growth day 29-42, DMG 500 mg/kg feed, mean ± SD",491 ± 118 g/day
same,"dGI, DMG-effect","[1]; barrows and gilts, day 0-14, vs control",−7.0%
same,"dGII, DMG-effect","[1]; barrows and gilts, day 14-29, vs control",+8.1%
same,"dGIII, DMG-effect","[1]; barrows and gilts, day 29-42, vs control",+2.1%
same,End body weight,"[1]; barrows and gilts, day 42, DMG 500 mg/kg feed, mean ± SD",21.4 ± 2.46 kg
same,"FCRII + III, DMG-effect","[1]; barrows and gilts, excluding the first two weeks, vs control",−7.6%
same,FCRII + III,"[1]; barrows and gilts, growth period excluding the first two weeks, DMG 500 mg/kg feed, mean ± SD",1.72 ± 0.10
same,improvement in feed conversion ratio (lower FCR),"[1]; barrows and gilts, growth period excluding the first two weeks, vs control, given unsigned",7.6%
same,FCR (feed conversion ratio),"[1]; barrows and gilts, total growth period, DMG 500 mg/kg feed, mean ± SD",1.87 and 1.87 ± 0.14
same,"FCR, DMG-effect","[1]; barrows and gilts, total growth period, vs control",−5.9%
same,improvement in feed conversion ratio (lower FCR),"[1]; barrows and gilts, total growth period, vs control, given unsigned",5.9%
same,Daily growth (dG),"[1]; barrows and gilts, total period day 0-42, DMG 500 mg/kg feed, mean ± SD",314 ± 53 g/day
same,improvement in feed conversion ratio (lower FCR),"[1]; barrows, total growth period, vs control, given unsigned",8.4%
same,"improvement in feed conversion ratio (FCRII+III, lower)","[1]; gilts, growth period excluding the first two weeks, vs control, given unsigned",8.9%
same,improvement in feed efficiency (lower FCR),"[1]; gilts, total growth period, vs control, only numerically, given unsigned",3.6%
same,health of the animals during the experiment (clinical signs of disease),"[1]; pig, in vivo",remained healthy
same,body weight gain,growing broilers,not an important impact
same,feed conversion rate,growing broilers,decreased
C[N+](C)(C)CC(=O)O [betaine],lung area damaged by mycoplasmal infection,[2]; 0.125% betaine in feed,significant reduction
same,"growth rate and other performance characteristics, such as the feed conversion ratio",[2]; growing pigs exposed to mycoplasmal infections,improvements
"CN(C)CC(=O)OC[C@@H](O)[C@@H](O)[C@H](O)[C@@H](O)C(=O)O [pangamic acid, 6-O-(dimethylaminoacetyl)-D-gluconic acid]",body weight gain,broilers,reduction
same,feed conversion rate,broilers,not affected

# Source: US20100183580A1, “TREATMENT OF PIGS FOR REDUCING THE FEED CONVERSION RATIO OR INCREASING THE GROWTH RATE” (priority 2007, published 2010)
